# Assay results as given in patent US12023330B2, “Use of manzamines as antiproliferative agent” (priority 2020, dated 2024).
# How the values were obtained:
# [1] = Weight loss at high doses; format: in vivo
# Source text: The manzamine class of marine alkaloids is attractive in its potential for the development of novel therapeutics. This group has among the most extensively studied marine natural products to date, being found in more than 16 species of Indo-Pacific sponges distributed within distinct geographical regions. […] These molecules also show interesting activity as neuroprotective and anti-inflammatory agents, HIV/AIDS-associated opportunistic infections, and inhibition of cancer proliferative and metastatic activity. See Ridley, R. G.; Matile, H.; Jaquet, C.; Dorn, A.; Hofheinz, W.; Leupin, W.; Masciadri, R.; Theil, F. P.; Richter, W. F.; Girometta, M. A.; Guenzi, A.; Urwyler, H.; Gocke, E.; Potthast, J. M.; Csato, M.; Thomas, A.; Peters, W. Antimicrob. Agents Chemother. 1997, 41, 677-686. […] It is anticipated that short-term weight-loss would be less problematic or would not necessarily offset the therapeutic gain in cancer patients.
# [2] = tested on: C33A, HeLa, SiHa and CaSki cell lines; experiment: Cell growth kinetics; format: cell-based, human
# Experimental: To maintain the treatment uniformity across the cell lines, we selected optimal dose concentration of 1 to 4 μM, and treated C33A, HeLa, SiHa and CaSki cell lines.
# Cell Growth Kinetics. Cervical cancer cells (1×10^6) or HKc (2×10^5) were plated in 100 mm tissue culture petri dish or 6-well plates. Following overnight incubation, cells were treated with 2 μM or 4 μM concentrations of manzamine A (1) derivatives for different time points (24, 48 and 72 hours). Dimethyl sulphoxide (DMSO) was used as control. The cell proliferation activity was determined by cell counting under the microscope with a hemocytometer using trypan blue staining.
# [3] = tested on: normal human keratinocytes (HKc); experiment: Cell growth kinetics of normal keratinocytes; format: cell-based; conditions: 4 μM stated for compound 4; 48 h and 72 h; vs DMSO control
# Experimental: Based on MoIN, the additional manzamine-related compounds such as manzamine D (2), manzamine F (3), 8-hydroxymanzamine A (4), and ircinal A (5) were tested for their biological activities targeting cervical cancer cell lines (SiHa and CaSki).
# Generation of Normal Human Keratinocytes (HKc). The generation and processing of normal HKc from de-identified foreskin tissue samples has previously been described in our studies, see Pirisi, L.; Yasumoto, S.; Feller, M.; Doniger, J.; DiPaolo, J. A. J. Virol. 1987, 61, 1061-1066, and was implemented with the following modifications: dispase was used in lieu of collagenase, and a trypsinization step was added to release the epidermal cells. Briefly, to generate normal HKc primary cultures, the foreskin tissue, free of subcutaneous tissue, was placed in 10% dispase in phosphate buffer saline (PBS) and incubated overnight at 37° C. The next day, the epidermis was separated from the dermis, and processed mechanically by shredding the tissue into smaller pieces that were then treated with Trypsin/EDTA for 10 minutes at 37° C. Following the addition of fetal bovine serum (10%) to stop the trypsin action, cells were collected by centrifugation and plated in keratinocytes serum free medium (KSFM).
# Cell Growth Kinetics. […] The cell proliferation activity was determined by cell counting under the microscope with a hemocytometer using trypan blue staining.
# SiHa cells [4] = experiment: Apoptosis analysis (annexin V and PI staining); format: cell-based, human; conditions: 4 μM, 48 hours
# Experimental: (§1) Since programmed cell death (apoptosis) is a key mechanism by which anti-cancer drugs kill cancer cells, we determined the apoptotic effect of manzamine A on cervical cancer cells using annexin V and PI staining. […] Given the sensitivity of C33A and HeLa cell lines to manzamine A, an increase in apoptosis was expected. […] CaSki cells were the least sensitive and corresponds to the IC50 values as in FIG. 2.
# (§2) Cell-cycle and Apoptosis Analysis. Cervical cancer cells were seeded and treated with different concentrations of manzamine A (1) as above. Following trypsinization, one part of the cells was washed with PBS and fixed in chilled 70% ethanol on ice for 30 min. Cells were treated with RNAse A (1 mg/ml) at room temperature for 30 min and stained with propidium iodide (PI: 20 μg/ml). Cell-cycle distribution was analyzed by flow cytometry (Beckman Coulter Epics Elite, Beckman). A minimum of 10,000 events were counted per sample, and the data were analyzed using CXP software (Beckman Coulter) for the proportions of cells in G0/G1, S and G2/M phases of the cell cycle. The second part of the cells were washed twice with PBS and re-suspended in the buffer containing Alexa Fluor conjugated-Annexin-V and PI (Life Technologies, USA). The double staining of the cells was analyzed by flow cytometric analysis. A total of 10,000 cell events were collected to analyze the extent of early, late apoptosis, or necrosis from each sample with the percentages of bound annexin-V^+/PI^−, annexin V^+/PI^+, and annexin V^−/PI^+, respectively.
# CaSki cells [5] = experiment: Apoptosis analysis (annexin V and PI staining); format: cell-based, human; conditions: 4 μM, 48 hours
# Experimental: as §1, §2
# C33A cells [6] = experiment: Apoptosis analysis (annexin V and PI staining); format: cell-based, human
# Experimental: as §1, §2
# HeLa cells [7] = experiment: Apoptosis analysis (annexin V and PI staining); format: cell-based, human
# Experimental: as §1, §2
# SiHa cells [8] = experiment: Cell cycle distribution by flow cytometry (PI); format: cell-based, human; conditions: 4 μM
# Experimental: (§3) Differential Activation of G1 Phase Arrest and Apoptosis by Manzamine A (1). To understand the mechanism of manzamine A (1)-mediated cell growth inhibition, we analyzed the cell cycle distribution by flow cytometry in C33A, HeLa, SiHa, and CaSki cell lines. […] FIGS. 3A and 3B show a representation of manzamine A (1) effect on cervical cancer cells treated with 4 μM concentration. […] The values represent standard error from the mean (mean±SE). DMSO serves as control. The significance level represents; *p<0.05; **p<0.001; ***[…]; and ns=non-significant. […] Particularly at 4 μM concentration, the percentage of G0/G1 cell population in SiHa and CaSki increased to 1.2 fold (p=0.001) and 1.4 fold (p=0.011) at 24 hours, and 1.2 fold (p=0.03) and 1.5 fold (p=0.006) at 48 hours as compared to respective DMSO control.
# as §2
# CaSki cells [9] = experiment: Cell cycle distribution by flow cytometry (PI); format: cell-based, human; conditions: 4 μM
# Experimental: as §3, §2
# C33A cells [10] = experiment: Cell cycle distribution by flow cytometry (PI); format: cell-based, human; conditions: 4 μM, 48 and 72 hours
# Experimental: as §3, §2
# HeLa cells [11] = experiment: Cell cycle distribution by flow cytometry (PI); format: cell-based, human; conditions: 4 μM, 48 and 72 hours, vs DMSO control
# Experimental: as §3, §2
structure (smiles),measurement,setting,value
O[C@]12C=C(c3nccc4c3[nH]c3ccccc34)[C@@H]3CCN(CCCC/C=C\CC1)C[C@@]31C[C@@H]3/C=C\CCCCN3[C@H]12 [manzamine A],body weight,[1],weight loss
same,cervical cancer cell proliferation,"[2]; 1 to 4 μM, time- and dose-dependent, vs DMSO control",significantly inhibited
same,"anti-proliferative, non-cytotoxic concentrations",[2]; cervical cancer cells,up to 4 μM
same,cell growth kinetics of normal HKc,[3],no adverse effect
same,percentage of induced apoptotic cells (apoptosis+ necrosis),SiHa cells [4],33.6%
same,percentage of induced apoptotic cells (apoptosis+ necrosis),CaSki cells [5],23.2%
same,percentage of induced apoptotic cells (apoptosis+ necrosis),"C33A cells [6]; 4 μM, 48 hours",36.5%
same,apoptosis and necrosis,C33A cells [6]; 24 hours,induces apoptosis
same,percentage of induced apoptotic cells (apoptosis+ necrosis),"HeLa cells [7]; 4 μM, 48 hours",75.9%
same,apoptosis,HeLa cells [7]; forty-eight hours treatment,significant increase
same,increase of percentage of G0/G1 cell population vs DMSO control,SiHa cells [8]; 24 hours,1.2 fold
same,increase of percentage of G0/G1 cell population vs DMSO control,SiHa cells [8]; 48 hours,1.2 fold
same,increase of percentage of G0/G1 cell population vs DMSO control,CaSki cells [9]; 24 hours,1.4 fold
same,increase of percentage of G0/G1 cell population vs DMSO control,CaSki cells [9]; 48 hours,1.5 fold
same,G2/M cell population,C33A cells [10],significant decrease
same,cell population in G0/G1,C33A cells [10]; vs DMSO control,significant decrease
same,cell population in G0/G1,HeLa cells [11],significant decrease
